In ChEMBL document CHEMBL1128530, “Alpha- and beta-adrenoceptors: from the gene to the clinic. 1. Molecular biology and adrenoceptor subclassification” (J Med Chem, 1995):

What was measured:
[1] = molecular target: T1, Alpha-2A adrenergic receptor (Sus scrofa, UniProt P18871); assay: Compound was evaluated for inhibition of binding of [3H]MK-91 to Alpha-2 adrenergic receptor in porcine alpha2-clone
T1 sequence (P18871 whole entry): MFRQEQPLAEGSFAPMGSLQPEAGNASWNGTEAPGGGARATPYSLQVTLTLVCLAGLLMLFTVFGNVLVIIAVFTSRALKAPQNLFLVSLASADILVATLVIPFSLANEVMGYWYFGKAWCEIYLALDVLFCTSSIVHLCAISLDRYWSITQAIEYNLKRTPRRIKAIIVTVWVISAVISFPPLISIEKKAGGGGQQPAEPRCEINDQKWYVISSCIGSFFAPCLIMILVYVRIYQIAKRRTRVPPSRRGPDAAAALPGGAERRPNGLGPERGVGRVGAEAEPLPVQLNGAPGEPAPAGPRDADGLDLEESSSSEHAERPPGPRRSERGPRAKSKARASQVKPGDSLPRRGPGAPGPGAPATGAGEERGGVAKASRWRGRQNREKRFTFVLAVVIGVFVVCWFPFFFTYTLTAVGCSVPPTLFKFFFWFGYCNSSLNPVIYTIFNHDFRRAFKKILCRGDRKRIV

[2] = molecular target: T2, Alpha-2 adrenergic receptor (Mus musculus, UniProt P30545+Q01338+Q01337); assay: Compound was evaluated for inhibition of binding of [3H]MK-91 to Alpha-2 adrenergic receptor in mouse Malpha2-10H clone; assay type: protein assay
T2 sequence (P30545 whole entry): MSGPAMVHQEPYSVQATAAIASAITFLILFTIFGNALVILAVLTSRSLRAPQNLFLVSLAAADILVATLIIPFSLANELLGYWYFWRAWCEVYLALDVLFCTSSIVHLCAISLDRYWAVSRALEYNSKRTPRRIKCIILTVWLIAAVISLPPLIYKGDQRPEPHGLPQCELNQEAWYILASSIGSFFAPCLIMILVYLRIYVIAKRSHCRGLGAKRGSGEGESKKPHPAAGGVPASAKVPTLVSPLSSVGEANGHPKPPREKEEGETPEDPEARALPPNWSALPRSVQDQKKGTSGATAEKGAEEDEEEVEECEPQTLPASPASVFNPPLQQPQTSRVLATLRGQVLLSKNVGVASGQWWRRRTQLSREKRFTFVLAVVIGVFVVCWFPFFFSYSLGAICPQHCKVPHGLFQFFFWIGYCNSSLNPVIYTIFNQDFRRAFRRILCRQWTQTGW
T2 sequence (Q01338 whole entry): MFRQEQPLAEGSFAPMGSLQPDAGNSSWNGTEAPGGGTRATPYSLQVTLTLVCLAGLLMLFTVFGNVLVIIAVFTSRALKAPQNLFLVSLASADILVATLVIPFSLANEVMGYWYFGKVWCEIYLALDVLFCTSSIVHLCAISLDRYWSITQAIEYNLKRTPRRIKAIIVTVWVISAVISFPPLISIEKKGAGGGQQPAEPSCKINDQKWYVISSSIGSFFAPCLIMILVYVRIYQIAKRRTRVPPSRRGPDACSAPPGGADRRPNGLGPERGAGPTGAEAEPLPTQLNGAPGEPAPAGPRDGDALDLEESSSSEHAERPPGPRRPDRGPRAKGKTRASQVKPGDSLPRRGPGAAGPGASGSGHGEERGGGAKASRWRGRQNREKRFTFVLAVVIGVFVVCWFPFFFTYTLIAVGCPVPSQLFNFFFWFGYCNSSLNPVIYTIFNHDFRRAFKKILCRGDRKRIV
T2 sequence (Q01337 whole entry): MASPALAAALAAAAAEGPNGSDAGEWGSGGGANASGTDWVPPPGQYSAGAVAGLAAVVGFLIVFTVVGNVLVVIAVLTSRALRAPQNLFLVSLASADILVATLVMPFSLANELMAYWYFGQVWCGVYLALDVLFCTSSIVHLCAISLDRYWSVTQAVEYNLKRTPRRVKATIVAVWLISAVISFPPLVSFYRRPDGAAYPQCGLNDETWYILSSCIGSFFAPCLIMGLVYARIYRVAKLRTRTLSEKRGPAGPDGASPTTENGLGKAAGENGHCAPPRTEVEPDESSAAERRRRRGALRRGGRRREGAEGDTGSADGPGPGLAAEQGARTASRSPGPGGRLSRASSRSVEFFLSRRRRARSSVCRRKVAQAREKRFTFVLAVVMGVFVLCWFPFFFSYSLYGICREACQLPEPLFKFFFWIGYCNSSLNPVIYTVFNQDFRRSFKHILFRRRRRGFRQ

[3] = molecular target: T3, Alpha-2A adrenergic receptor (Bos taurus, UniProt Q28838); assay: Compound was evaluated for inhibition of binding of [3H]MK-91 to Alpha-2 adrenergic receptor in bovine pineal
T3 sequence (Q28838 whole entry): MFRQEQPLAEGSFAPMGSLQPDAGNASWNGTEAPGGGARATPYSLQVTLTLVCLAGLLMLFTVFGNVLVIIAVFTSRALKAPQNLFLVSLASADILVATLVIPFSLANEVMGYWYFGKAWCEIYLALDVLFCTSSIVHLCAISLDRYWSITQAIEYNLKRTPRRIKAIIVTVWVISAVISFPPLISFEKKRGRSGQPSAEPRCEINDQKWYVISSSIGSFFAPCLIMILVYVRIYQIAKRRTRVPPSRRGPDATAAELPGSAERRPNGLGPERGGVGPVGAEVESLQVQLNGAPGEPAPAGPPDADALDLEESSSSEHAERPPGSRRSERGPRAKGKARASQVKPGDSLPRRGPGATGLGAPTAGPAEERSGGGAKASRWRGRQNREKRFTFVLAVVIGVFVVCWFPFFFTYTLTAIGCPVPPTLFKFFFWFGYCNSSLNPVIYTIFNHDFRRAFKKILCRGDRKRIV

[4] = molecular target: T2, Alpha-2 adrenergic receptor; assay: Compound was evaluated for inhibition of binding of [3H]-MK-91 to Alpha-2 adrenergic receptor in mouse NG-108 cells; assay type: cell-based
[5] = molecular target: T2, Alpha-2 adrenergic receptor; assay: Compound was evaluated for inhibition of binding of [3H]MK-91 to Alpha-2 adrenergic receptor in mouse Malpha2-4H; assay type: protein assay

In the case of Cc1cc(C(C)(C)C)c(O)c(C)c1CC1=NCCN1 [OXYMETAZOLINE], the Ki [1] is reported as 21 nM, the Ki [2] is reported as 33 nM and the Ki [3] is reported as 1.5 nM. It also gave a Ki [4] of 132 nM and a Ki [5] of 109 nM.
